Test results published in ChEMBL document CHEMBL1147043, “Comparative metabolism of radiolabeled muraglitazar in animals and humans by quantitative and qualitative metabolite profiling” (Drug Metab Dispos, 2007).

What was measured:
[1] = Fecal excretion of compound in bile duct-cannulated orally dosed Sprague-Dawley rat within 24 hrs; assay type: ADME, organism-based; conditions: faeces, po, read-out: Activity
[2] = Bile excretion of compound in bile duct-cannulated orally dosed cynomolgus monkey within 48 hrs; assay type: ADME, organism-based, Macaca fascicularis; conditions: po, read-out: Activity
[3] = Biodistribution in orally dosed human feces assessed as 17-hydroxy muraglitazar level by LC/MS analysis; assay type: ADME, organism-based; conditions: in vivo, po
[4] = Biodistribution in orally dosed human feces assessed as muraglitazar 12-carboxylic acid level by LC/MS analysis; assay type: ADME, organism-based; conditions: in vivo, po
[5] = system: Rattus norvegicus; assay: Biodistribution in orally dosed Sprague-Dawley rat feces assessed as O-demethyl muraglitazar level by LC/MS analysis; assay type: ADME, organism-based; conditions: in vivo, po
[6] = system: Hepatocyte; assay: Metabolic stability in Sprague-Dawley rat hepatocytes assessed as 12-hydroxy-O-demethyl muraglitazar level by LC/MS analysis relative to control; assay type: ADME, cell-based
[7] = system: Hepatocyte; assay: Metabolic stability in Sprague-Dawley rat hepatocytes assessed as 17-hydroxy-O-demethyl muraglitazar level by LC/MS analysis relative to control; assay type: ADME, cell-based
[8] = Metabolic stability in cynomolgus monkey hepatocytes assessed as 12-hydroxy-O-demethyl muraglitazar level by LC/MS analysis relative to control; assay type: ADME, cell-based, Macaca fascicularis, Hepatocyte
[9] = Metabolic stability in cynomolgus monkey hepatocytes assessed as 9-hydroxy-O-demethyl muraglitazar level by LC/MS analysis relative to control; assay type: ADME, cell-based, Macaca fascicularis, Hepatocyte
[10] = Metabolic stability in cynomolgus monkey hepatocytes assessed as 12-hydroxy muraglitazar level by LC/MS analysis relative to control; assay type: ADME, cell-based, Macaca fascicularis, Hepatocyte
[11] = Metabolic stability in cynomolgus monkey hepatocytes assessed as muraglitazar 12-carboxylic acid level by LC/MS analysis relative to control; assay type: ADME, cell-based, Macaca fascicularis, Hepatocyte
[12] = Metabolic stability in cynomolgus monkey hepatocytes assessed as hydroxyl muraglitazar glucuronide level by LC/MS analysis relative to control; assay type: ADME, cell-based, Macaca fascicularis, Hepatocyte
[13] = system: Hepatocyte; assay: Metabolic stability in human hepatocytes assessed as O-Dealkyl muraglitazar level by LC/MS analysis relative to control; assay type: ADME, cell-based
[14] = system: Hepatocyte; assay: Metabolic stability in human hepatocytes assessed as 12-hydroxy-O-demethyl muraglitazar level by LC/MS analysis relative to control; assay type: ADME, cell-based
[15] = system: Hepatocyte; assay: Metabolic stability in human hepatocytes assessed as 9-hydroxy-O-demethyl muraglitazar level by LC/MS analysis relative to control; assay type: ADME, cell-based
[16] = system: Hepatocyte; assay: Metabolic stability in human hepatocytes assessed as 8-hydroxy muraglitazar level by LC/MS analysis relative to control; assay type: ADME, cell-based
[17] = system: Hepatocyte; assay: Metabolic stability in human hepatocytes assessed as O-demethyl muraglitazar level by LC/MS analysis relative to control; assay type: ADME, cell-based
[18] = system: Hepatocyte; assay: Metabolic stability in human hepatocytes assessed as hydroxyl-O-demethyl muraglitazar glucuronide level by LC/MS analysis relative to control; assay type: ADME, cell-based
[19] = Biodistribution in orally dosed cynomolgus monkey feces assessed as muraglitazar glucuronide level by LC/MS analysis; assay type: ADME, organism-based, Macaca fascicularis; conditions: in vivo, po
[20] = Biodistribution in orally dosed human feces assessed as muraglitazar glucuronide level by LC/MS analysis; assay type: ADME, organism-based; conditions: in vivo, po
[21] = system: Rattus norvegicus; assay: Biodistribution in orally dosed Sprague-Dawley rat urine assessed as 9-hydroxy muraglitazar level by LC/MS analysis; assay type: ADME, organism-based; conditions: in vivo, po
[22] = Biodistribution in orally dosed cynomolgus monkey urine assessed as 9-hydroxy muraglitazar level by LC/MS analysis; assay type: ADME, organism-based, Macaca fascicularis; conditions: in vivo, po
[23] = system: Rattus norvegicus; assay: Biodistribution in orally dosed Sprague-Dawley rat urine assessed as O-demethyl muraglitazar level by LC/MS analysis; assay type: ADME, organism-based; conditions: in vivo, po
[24] = Biodistribution in orally dosed cynomolgus monkey feces assessed as O-dealkyl-O-demethyl muraglitazar level by LC/MS analysis; assay type: ADME, organism-based, Macaca fascicularis; conditions: in vivo, po
[25] = Metabolic stability in CD1 mouse hepatocytes assessed as O-demethyl muraglitazar glucuronide level by LC/MS analysis relative to control; assay type: ADME, cell-based, Hepatocyte
[26] = system: Hepatocyte; assay: Metabolic stability in Sprague-Dawley rat hepatocytes assessed as 17-hydroxy muraglitazar level by LC/MS analysis relative to control; assay type: ADME, cell-based
[27] = system: Hepatocyte; assay: Metabolic stability in Sprague-Dawley rat hepatocytes assessed as O-demethyl muraglitazar glucuronide level by LC/MS analysis relative to control; assay type: ADME, cell-based
[28] = Metabolic stability in cynomolgus monkey hepatocytes assessed as 9-hydroxy muraglitazar level by LC/MS analysis relative to control; assay type: ADME, cell-based, Macaca fascicularis, Hepatocyte
[29] = Biodistribution in orally dosed cynomolgus monkey urine assessed as 12,17-dihydroxy muraglitazar level by LC/MS analysis; assay type: ADME, organism-based, Macaca fascicularis; conditions: in vivo, po
[30] = Biodistribution in orally dosed cynomolgus monkey feces assessed as imide derivative of muraglitazar level by LC/MS analysis; assay type: ADME, organism-based, Macaca fascicularis; conditions: in vivo, po
[31] = system: Rattus norvegicus; assay: Biodistribution in orally dosed Sprague-Dawley rat urine assessed as 12-hydroxy muraglitazar level by LC/MS analysis; assay type: ADME, organism-based; conditions: in vivo, po
[32] = Drug concentration in human bile assessed as recovery of radioactive dose at 20 mg, po after 3 to 8 hrs; assay type: ADME, organism-based; conditions: in vivo
[33] = system: Hepatocyte; assay: Metabolic stability in human hepatocytes assessed as radioactivity recovaries at 25.6 ug/mL after 4 hrs; assay type: ADME, cell-based
[34] = Drug concentration in bile duct-cannulated Sprague-Dawley rat bile at 10 mg/kg, po after 24 hrs; assay type: ADME, organism-based; set-up: dose 10 mg/kg, route oral; conditions: in vivo
[35] = system: Plasma; assay: Biodistribution in orally dosed cynomolgus monkey plasma assessed as muraglitazar glucuronide level after 1 hr by LC/MS analysis; assay type: ADME, organism-based, Macaca fascicularis; conditions: in vivo, po
[36] = Drug concentration in bile duct-cannulated Sprague-Dawley rat feces assessed as recovery of radioactive dose at 11 mg/kg, po after 24 hrs; assay type: ADME, organism-based; set-up: dose 11 mg/kg, route oral; conditions: in vivo
[37] = Drug concentration in bile duct-cannulated Sprague-Dawley rat bile assessed as recovery of radioactive dose at 11 mg/kg, po after 24 hrs; assay type: ADME, organism-based; set-up: dose 11 mg/kg, route oral; conditions: in vivo
[38] = Drug concentration in Beagle dog urine assessed as recovery of radioactive dose at 1.9 mg/kg, po after 168 hrs; assay type: ADME, organism-based, Canis lupus familiaris; set-up: dose 1.9 mg/kg, route oral; conditions: in vivo
[39] = system: Plasma; assay: Biodistribution in orally dosed cynomolgus monkey plasma assessed as […] muraglitazar level after 4 hrs by LC/MS analysis; assay type: ADME, organism-based, Macaca fascicularis; conditions: in vivo, po
[40] = system: Plasma; assay: Biodistribution in orally dosed Beagle dog plasma assessed as 12-dihydroxy muraglitazar level after 12 hrs by LC/MS analysis; assay type: ADME, organism-based, Canis lupus familiaris; conditions: in vivo, po
[41] = system: Plasma; assay: Biodistribution in orally dosed Beagle dog plasma assessed as 17-dihydroxy muraglitazar level after 1 hr by LC/MS analysis; assay type: ADME, organism-based, Canis lupus familiaris; conditions: in vivo, po
[42] = system: Plasma; assay: Biodistribution in orally dosed cynomolgus monkey plasma assessed as 17-dihydroxy muraglitazar level after 12 hrs by LC/MS analysis; assay type: ADME, organism-based, Macaca fascicularis; conditions: in vivo, po
[43] = system: Plasma; assay: Biodistribution in orally dosed Beagle dog plasma assessed as O-Dealkyl muraglitazar level after 4 hrs by LC/MS analysis; assay type: ADME, organism-based, Canis lupus familiaris; conditions: in vivo, po
[44] = system: Plasma; assay: Biodistribution in orally dosed human plasma assessed as O-Dealkyl muraglitazar level after 12 hrs by LC/MS analysis; assay type: ADME, organism-based; conditions: in vivo, po
[45] = system: Plasma; assay: Biodistribution in orally dosed cynomolgus monkey plasma assessed as 8-hydroxy-O-demethyl muraglitazar level after 4 hrs by LC/MS analysis; assay type: ADME, organism-based, Macaca fascicularis; conditions: in vivo, po
[46] = system: Plasma; assay: Biodistribution in orally dosed Sprague-Dawley rat plasma assessed as 12,17-dihydroxy muraglitazar level after 12 hrs by LC/MS analysis; assay type: ADME, organism-based; conditions: in vivo, po
[47] = system: Plasma; assay: Biodistribution in orally dosed cynomolgus monkey plasma assessed as 12,17-dihydroxy muraglitazar level after 12 hrs by LC/MS analysis; assay type: ADME, organism-based, Macaca fascicularis; conditions: in vivo, po
[48] = Biodistribution in orally dosed cynomolgus monkey urine assessed as 17-hydroxy-O-demethyl muraglitazar level by LC/MS analysis; assay type: ADME, organism-based, Macaca fascicularis; conditions: in vivo, po
[49] = Tmax in Beagle dog at 2 mg/kg, po after 4 hrs; assay type: ADME, organism-based, Canis lupus familiaris; set-up: dose 2 mg/kg, route oral; conditions: in vivo
[50] = Fecal excretion of compound in bile duct-cannulated orally dosed cynomolgus monkey within 48 hrs; assay type: ADME, organism-based, Macaca fascicularis; conditions: faeces, po, read-out: Activity
[51] = Biodistribution in orally dosed Beagle dog feces assessed as O-dealkyl muraglitazar level by LC/MS analysis; assay type: ADME, organism-based, Canis lupus familiaris; conditions: in vivo, po
[52] = Biodistribution in orally dosed human feces assessed as 8-hydroxy-O-demethyl muraglitazar level by LC/MS analysis; assay type: ADME, organism-based; conditions: in vivo, po

SMILES: COc1ccc(OC(=O)N(CC(=O)O)Cc2ccc(OCCc3nc(-c4ccccc4)oc3C)cc2)cc1 [MURAGLITAZAR]
- dose excreted at 24 h [1]: < 1%
- dose excreted at 48 h [2]: 36%
- Drug uptake [3]: 5.92%
- Drug uptake [4]: 0.13%
- Drug uptake [5]: 34.2%
- Drug uptake [6]: < 0.2%
- Drug uptake [7]: < 0.2%
- Drug uptake [8]: < 0.2%
- Drug uptake [9]: 0.5%
- Drug uptake [10]: 0.8%
- Drug uptake [11]: 13%
- Drug uptake [12]: 2.8%
- Drug uptake [13]: 5.7%
- Drug uptake [14]: < 0.2%
- Drug uptake [15]: < 0.2%
- Drug uptake [16]: < 0.2%
- Drug uptake [17]: 2.3%
- Drug uptake [18]: < 0.2%
- Drug uptake [19]: 0.8%
- Drug uptake [20]: 0.06%
- Drug uptake [21]: < 0.01%
- Drug uptake [22]: 0.03%
- Drug uptake [23]: 0.12%
- Drug uptake [24]: 0.4%
- Drug uptake [25]: < 0.2%
- Drug uptake [26]: 2%
- Drug uptake [27]: < 0.2%
- Drug uptake [28]: 0.6%
- Drug uptake [29]: 0.13%
- Drug uptake [30]: 0.56%
- Drug uptake [31]: 0.03%
- Drug uptake [32]: 39.9%
- Stability [33]: 98.7%
- Drug uptake [34]: 0.289 mgequiv/ml
- Drug uptake [35]: 0.1%
- Drug uptake [36]: 0.55%
- Drug uptake [37]: 65.1%
- Drug uptake [38]: 0.5%
- Drug uptake [39]: 1.3%
- Drug uptake [40]: 9%
- Drug uptake [41]: < 0.05%
- Drug uptake [42]: 21.4%
- Drug uptake [43]: 3%
- Drug uptake [44]: 0.2%
- Drug uptake [45]: 0.1%
- Drug uptake [46]: < 0.05%
- Drug uptake [47]: 1%
- Drug uptake [48]: 0.01%
- Tmax [49]: 1 h
- dose excreted at 48 h [50]: 15%
- Drug uptake [51]: 0.89%
- Drug uptake [52]: 0.56%
